Test results published in US4536335A, “Carbapenem antibiotics” (Bristol-Myers Company, priority 1983, dated 1985).
Values after ≈ are worked out from the molar mass of the structure shown. Like-named read-outs stand apart in the source and are kept apart here.

Tests used:
S. pyogenes A-9604 = experiment: In vitro MIC, tube dilution; format: cell-based; conditions: Nutrient Broth, overnight incubation at 37° C.; for MIC: Streptococcus pyogenes, A9604, tube dilution
[1] = system: S. aureus A-9606 (Pen-res.); experiment: In vitro MIC, tube dilution; format: cell-based; conditions: Nutrient Broth, overnight incubation at 37° C.; for MIC: Staphylococcus aureus
S. aureus A-9606 = experiment: Protective effect in the intramuscular treatment of infected mice (PD50); format: in vivo; conditions: Staphylococcus aureus, A9606, im, read-out: PD50/treatment, S. aureus A-9606, mice infected i.p. (Ex. 2: 2 × 10^9 organisms; Ex. 4 and 5: ~9 × 10^7), treated i.m. 0 and 2 h postinfection
P. aeruginosa A-9843A [2] = experiment: In vitro MIC, tube dilution; format: cell-based; conditions: Pseudomonas aeruginosa, A9843A, Nutrient Broth, overnight incubation at 37° C.
P. aeruginosa A20481 = experiment: Protective effect in the intramuscular treatment of infected mice (PD50); format: in vivo; conditions: Pseudomonas aeruginosa, A20481, im; mice infected i.p. (Ex. 2: 1 × 10^5 organisms), treated i.m. 0 and 2 h postinfection
P. rettgeri A22424 = experiment: In vitro MIC, tube dilution; format: cell-based; conditions: Providencia rettgeri, A22424, tube dilution, Nutrient Broth, overnight incubation at 37° C.
[3] = Urinary recovery after intramuscular administration to mice; format: in vivo; conditions: mouse, urine, im, 20 mg/kg, mice, i.m. 20 mg/kg, 6-24 hours after administration; read-out: Percentage of Dose Recovered in urine, 6-24 hours
Protocol: Compounds were solubilized in 0.1 M phosphate buffer pH 7. Values are from a single test; 4 mice per compound.
(§1) Also shown is the urinary recovery in the mice.
***Recovery based on 0-6 hour collection

P. morganii A15153 = experiment: In vitro MIC, tube dilution; format: cell-based; conditions: Morganella morganii, A15153, tube dilution, Nutrient Broth, overnight incubation at 37° C.; read-out: MIC P. morganii A15153
S. marcescens A20019 = experiment: In vitro MIC, tube dilution; format: cell-based; conditions: tube dilution, Nutrient Broth, overnight incubation at 37° C.
E. cloacae A-9569 = experiment: In vitro MIC, tube dilution; format: cell-based; conditions: Enterobacter cloacae, A9569, Nutrient Broth, overnight incubation at 37° C.
From the text: (§2) N-Formimidoyl thienamycin was included as a comparison compound.

B. fragilis A22696 = experiment: In vitro MIC, tube dilution; format: cell-based; conditions: Bacteroides fragilis, Nutrient Broth, overnight incubation at 37° C.
From the text: as §2

B. fragilis A22053 = experiment: In vitro MIC, tube dilution; format: cell-based; conditions: Bacteroides fragilis, Nutrient Broth, overnight incubation at 37° C.
From the text: as §2

B. fragilis A22863 = experiment: In vitro MIC, tube dilution; format: cell-based; conditions: Bacteroides fragilis, Nutrient Broth, overnight incubation at 37° C.
From the text: as §2

P. mirabilis A-9900 = experiment: In vitro MIC, tube dilution; format: cell-based; conditions: Nutrient Broth, overnight incubation at 37° C.; for MIC: Proteus mirabilis, A9900, tube dilution
K. pneumoniae A-9664 = experiment: In vitro MIC, tube dilution; format: cell-based; conditions: Nutrient Broth, overnight incubation at 37° C.; for MIC: Klebsiella pneumoniae, A9664, tube dilution
E. cloacae A-9656 = experiment: In vitro MIC, tube dilution; format: cell-based; conditions: tube dilution, Nutrient Broth, overnight incubation at 37° C.
P. aeruginosa A21213 = experiment: In vitro MIC, tube dilution; format: cell-based; conditions: Nutrient Broth, overnight incubation at 37° C.; for MIC: Pseudomonas aeruginosa, A21213, tube dilution
P. aeruginosa A-9843a [4] = experiment: Protective effect in the intramuscular treatment of infected mice (PD50); format: in vivo; conditions: Pseudomonas aeruginosa, A9843A, im
Protocol: The PD50 (dose in mg/kg required to give protection to 50% of the infected mice) is indicated.
Treatment Schedule: Mice were treated i.m. with drugs 0 and 2 hours post-infection; 5 mice per dose were used for each test
*For compound of Ex. 2, mice were infected i.p. with 2 × 10^9
compounds of Ex. 4 and 5, mice were infected i.p. with ~9 ×
were treated i.m. with drugs 0 and 2 h postinfection.

K. pneumoniae A20468 = experiment: In vitro MIC, tube dilution; format: cell-based; conditions: Klebsiella pneumoniae, A20468, tube dilution, Nutrient Broth, overnight incubation at 37° C.
S. faecalis A20688 = experiment: In vitro MIC, tube dilution; format: cell-based; conditions: Nutrient Broth, overnight incubation at 37° C.; for MIC: Enterococcus faecalis, A20688, tube dilution
[5] = Blood levels in mice after intramuscular administration; format: in vivo; conditions: mouse, intramuscular dose of 20 mg/kg
From the text: Compounds were solubilized in 0.1 M phosphate buffer pH 7. Values are fro
a single test; 4 mice used per compound.
*t1/2 refers to halflife in minutes
**AUC refers to the area under the blood concentrationtime curve
as §1
Compounds were solubilized in 0.1 M phosphate buffer, pH 7.
Values based on a single test; 4 mice per compound.
*T1/2 refers to halflife in minutes

S. pneumoniae A-9585 = experiment: In vitro MIC, tube dilution; format: cell-based; conditions: overnight incubation at 37° C.; for MIC: Streptococcus pneumoniae, A9585, Nutrient Broth
[6] = tube dilution, additional data table, listed as MK 0787

Question: With `C[C@@H](O)[C@H]1C(=O)N2C(C(=O)O)=C(SCCN=CN)C[C@H]12` [N-Formimidoyl Thienamycin, N-formimidoyl thienamycin, reference compound] as the compound, how does the MIC (S. pyogenes A-9604) read?
Answer: 0.001 µg/mL (≈ 0.00334 µM)

Question: And the MIC (S. pyogenes A-9604; additional data table)?
Answer: 0.002 µg/mL (≈ 0.00668 µM)

Question: What about the “MIC S. pyogenes A-9604” value (S. pyogenes A-9604; [6]) of the same compound?
Answer: 0.001 µg/mL (≈ 0.00334 µM)

Question: And the “MIC S. aureus (Pen-res.) A-9606” value ([1]; additional data table, listed as MK 0787)?
Answer: 0.004 µg/mL (≈ 0.0134 µM)

Question: And the MIC ([1]; additional data table, read-out: MIC S. aureus (Pen-res.) A-9606)?
Answer: 0.008 µg/mL (≈ 0.0267 µM)

Question: What about the MIC ([1]; read-out: MIC S. aureus A-9606 (Pen-res.)) of the same compound?
Answer: 0.008 µg/mL (≈ 0.0267 µM)

Question: And the ED50 (S. aureus A-9606)?
Answer: 0.07 mg/kg

Question: And the MIC (P. aeruginosa A-9843A [2])?
Answer: 1 µg/mL (≈ 3.34 µM)

Question: What about the MIC (P. aeruginosa A-9843A [2]; additional data table) of the same compound?
Answer: 1 µg/mL (≈ 3.34 µM)

Question: What about the ED50 (P. aeruginosa A20481) of the same compound?
Answer: 0.4 mg/kg

Question: And the MIC (P. rettgeri A22424)?
Answer: 0.25 µg/mL (≈ 0.835 µM)

Question: What about the MIC (P. rettgeri A22424; additional data table) of the same compound?
Answer: 0.13 µg/mL (≈ 0.434 µM)

Question: What about the dose excreted at 24 h [3] of the same compound?
Answer: < 0.1%

Question: And the MIC (P. morganii A15153)?
Answer: 0.13 µg/mL (≈ 0.434 µM)

Question: And the MIC (S. marcescens A20019; Serratia marcescens, A20019)?
Answer: 0.03 µg/mL (≈ 0.1 µM)

Question: And the “MIC S. marcescens A20019” value (S. marcescens A20019; additional data table)?
Answer: 0.03 µg/mL (≈ 0.1 µM)

Question: What about the MIC (E. cloacae A-9569) of the same compound?
Answer: 0.06 µg/mL (≈ 0.2 µM)

Question: And the MIC (B. fragilis A22696)?
Answer: 0.13 µg/mL (≈ 0.434 µM)

Question: And the MIC (B. fragilis A22053)?
Answer: 0.06 µg/mL (≈ 0.2 µM)

Question: What about the MIC (B. fragilis A22863) of the same compound?
Answer: 1 µg/mL (≈ 3.34 µM)

Question: What about the MIC (P. mirabilis A-9900) of the same compound?
Answer: 0.06 µg/mL (≈ 0.2 µM)

Question: What about the MIC (P. mirabilis A-9900; additional data table) of the same compound?
Answer: 0.03 µg/mL (≈ 0.1 µM)

Question: What about the “MIC P. mirabilis A-9900” value (P. mirabilis A-9900; [6]) of the same compound?
Answer: 0.06 µg/mL (≈ 0.2 µM)

Question: What about the MIC (K. pneumoniae A-9664) of the same compound?
Answer: 0.13 µg/mL (≈ 0.434 µM)

Question: And the MIC (K. pneumoniae A-9664; additional data table)?
Answer: 0.03 µg/mL (≈ 0.1 µM)

Question: What about the “MIC K. pneumoniae A-9664” value (K. pneumoniae A-9664; [6]) of the same compound?
Answer: 0.06 µg/mL (≈ 0.2 µM)

Question: What about the MIC (E. cloacae A-9656; Enterobacter cloacae, A9656) of the same compound?
Answer: 0.06 µg/mL (≈ 0.2 µM)

Question: And the “MIC E. cloacae A-9656” value (E. cloacae A-9656; additional data table)?
Answer: 0.06 µg/mL (≈ 0.2 µM)

Question: What about the MIC (P. aeruginosa A21213) of the same compound?
Answer: 0.25 µg/mL (≈ 0.835 µM)

Question: What about the MIC (P. aeruginosa A21213; additional data table) of the same compound?
Answer: 0.13 µg/mL (≈ 0.434 µM)

Question: What about the “MIC P. aeruginosa A21213” value (P. aeruginosa A21213; [6]) of the same compound?
Answer: 0.25 µg/mL (≈ 0.835 µM)

Question: And the ED50 (P. aeruginosa A-9843a [4]; read-out: PD50/treatment, P. aeruginosa A9843A)?
Answer: 1 mg/kg

Question: What about the ED50 (P. aeruginosa A-9843a [4]; mice, i.m., *Historical data, read-out: PD50/Treatment, P. aeruginosa A-9843a (historical data)) of the same compound?
Answer: 0.5 mg/kg

Question: And the MIC (K. pneumoniae A20468)?
Answer: 0.06 µg/mL (≈ 0.2 µM)

Question: What about the MIC (S. faecalis A20688) of the same compound?
Answer: 0.5 µg/mL (≈ 1.67 µM)

Question: And the MIC (S. faecalis A20688; additional data table)?
Answer: 0.25 µg/mL (≈ 0.835 µM)

Question: And the “MIC S. faecalis A20688” value (S. faecalis A20688; [6])?
Answer: 0.5 µg/mL (≈ 1.67 µM)

Question: What about the “Blood AUC” value [5] of the same compound?
Answer: 6000 ng·h/mL

Question: And the “MIC S. pneumoniae A-9585” value (S. pneumoniae A-9585; Nutrient Broth, additional data table, listed as MK 0787)?
Answer: 0.001 µg/mL (≈ 0.00334 µM)

Question: And the MIC (S. pneumoniae A-9585)?
Answer: 0.004 µg/mL (≈ 0.0134 µM)

Question: And the MIC (S. pneumoniae A-9585; additional data table)?
Answer: 0.002 µg/mL (≈ 0.00668 µM)
